Patent US20040014024A1, “Screening assay for antagonists of FGFR-mediated malignant cell transformation and tumor formation” (priority 1999, published 2004)

System: RCJ cells
Experiment: Tumor formation in nude mice injected with RCJ cells, doxycycline in drinking water
Type: in vivo
Details: doxycycline 25 μg/ml in drinking water, up to 60 days
Procedure: 6-8-Week old nude mice (BalbC/Nu) were injected subcutaneously with equivalent number of parental RCJ or L8 cells or FGFR3 expressing cell lines and were followed for tumor formation for up to 60 days after injections. Inhibition of FGFR expression in vivo was done by adding 25 μg/ml doxycycline into the drinking water of mice which had previously received the RCJ cell clones by injection. Nude mice were injected subcutaneously with equivalent numbers of parental RCJ cells (FIGS. 9 A-C, C2, squares) or wild type or mutant FGFR3 expressing RCJ cell lines (W11, circles in FIG. 9A, M15, triangles in FIG. 9A, W2, triangles in FIG. 9B, M16, circles in FIG. 9B) and tumor surface areas were evaluated for up to 60 days after injection (ordinates). […] Triangles, C2 (control) clone plus doxycycline, circles, W11 clone, filled squares, W11 clone plus doxycycline Doxycycline was used in animals because the former is a potent high affinity derivative of tetracycline. […] The inhibition of tumor formation of RCJ cells was highly correlated with the expression levels of FGFR3. In order to determine whether inhibition of tumor formation reflects the expression level of FGFR3, we have performed an assay where we tried to suppress the expression of FGFR3 in vivo by the addition of doxycycline to the drinking water of injected mice.

C[C@H]1c2cccc(O)c2C(=O)C2=C(O)[C@]3(O)C(=O)C(C(N)=O)=C(O)[C@@H](N(C)C)[C@@H]3[C@@H](O)[C@@H]21 [doxycycline]
effect on tumor formation, mice injected with the parental RCJ line (C2): no significant effect
